In ChEMBL document CHEMBL1132519, “Synthesis and sar of 2- and 3-substituted 7-azaindoles as potential dopamine D4 ligands” (Bioorg Med Chem Lett, 1999) one finds Ki data, which are given here for ten compounds.

In one assay the target is T1, D(4) dopamine receptor (Homo sapiens, UniProt P21917).
T1 sequence (P21917 whole entry): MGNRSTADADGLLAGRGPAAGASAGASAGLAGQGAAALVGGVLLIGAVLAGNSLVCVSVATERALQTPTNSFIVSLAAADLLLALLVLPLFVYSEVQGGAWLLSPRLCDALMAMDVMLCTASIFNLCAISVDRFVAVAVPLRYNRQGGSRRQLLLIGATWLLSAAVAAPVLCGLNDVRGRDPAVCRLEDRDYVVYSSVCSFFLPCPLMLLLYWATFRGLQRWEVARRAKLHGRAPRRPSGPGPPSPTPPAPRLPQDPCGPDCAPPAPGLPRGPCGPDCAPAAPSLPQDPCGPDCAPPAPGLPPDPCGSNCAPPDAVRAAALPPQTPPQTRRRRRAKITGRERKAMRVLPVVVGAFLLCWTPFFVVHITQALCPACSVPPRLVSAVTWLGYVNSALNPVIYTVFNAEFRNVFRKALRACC

The target in a further assay is D(3) dopamine receptor (Homo sapiens, UniProt P35462).
The target of the next assay is D(2) dopamine receptor (Homo sapiens, UniProt P14416).
D(2) dopamine receptor, sequence (P14416 whole entry): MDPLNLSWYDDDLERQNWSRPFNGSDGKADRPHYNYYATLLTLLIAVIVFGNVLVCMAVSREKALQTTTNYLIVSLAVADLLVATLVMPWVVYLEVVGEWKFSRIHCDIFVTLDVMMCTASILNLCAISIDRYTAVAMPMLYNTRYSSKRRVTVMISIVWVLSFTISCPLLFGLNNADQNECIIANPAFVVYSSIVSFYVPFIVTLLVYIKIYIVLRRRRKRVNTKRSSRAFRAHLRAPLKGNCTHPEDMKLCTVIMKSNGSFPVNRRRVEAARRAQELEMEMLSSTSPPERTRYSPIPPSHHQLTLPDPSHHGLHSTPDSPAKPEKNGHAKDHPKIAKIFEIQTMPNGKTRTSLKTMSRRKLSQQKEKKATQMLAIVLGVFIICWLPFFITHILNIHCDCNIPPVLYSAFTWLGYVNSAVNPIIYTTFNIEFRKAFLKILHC

D(3) dopamine receptor, sequence (P35462 whole entry): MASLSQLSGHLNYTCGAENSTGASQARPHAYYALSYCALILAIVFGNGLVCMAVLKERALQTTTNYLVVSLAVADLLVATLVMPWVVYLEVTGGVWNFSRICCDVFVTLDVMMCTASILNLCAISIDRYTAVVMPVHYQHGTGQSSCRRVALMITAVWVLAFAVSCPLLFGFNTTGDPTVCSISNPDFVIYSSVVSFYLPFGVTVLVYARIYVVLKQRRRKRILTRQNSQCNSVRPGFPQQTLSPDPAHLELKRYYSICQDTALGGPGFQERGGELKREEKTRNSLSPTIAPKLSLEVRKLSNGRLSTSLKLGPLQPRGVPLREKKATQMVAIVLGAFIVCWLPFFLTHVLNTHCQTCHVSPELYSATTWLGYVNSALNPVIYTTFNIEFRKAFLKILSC
Description for D(2) dopamine receptor: Ability to displace [3H]spiperone from cloned human dopamine D2 receptor stably expressed in CHO cells
Description for D(3) dopamine receptor: Ability to displace [3H]-spiperone from cloned human dopamine D3 receptor stably expressed in CHO cells
Description for D(4) dopamine receptor: Ability to displace [3H]spiperone from cloned human dopamine D4 receptor stably expressed in HEK293 cells

A word on the Ki: it is a measure of affinity in units of concentration, obtained from inhibition or displacement. In the case of `c1ccc2c(c1)CCN(Cc1c[nH]c3ncccc13)C2`, the inhibition constant (Ki) was found to be 7 nM at D(4) dopamine receptor, 170 nM at D(3) dopamine receptor and 640 nM on D(2) dopamine receptor.
On to `C1=C(/C=C/c2ccccc2)CCN(CCc2cc3ccc[nH]c-3n2)C1`, for which the inhibition constant Ki amounted to 30 nM at D(4) dopamine receptor, 25 nM at D(3) dopamine receptor and 1300 nM at D(2) dopamine receptor.
In the case of `c1ccc(CCC2CCN(Cc3c[nH]c4ncccc34)CC2)cc1`, the Ki on D(4) dopamine receptor was 1.8 nM; on D(3) dopamine receptor, 1300 nM; at D(2) dopamine receptor, 1100 nM.
For the compound `c1ccc(CCC2CCN(Cc3cc4ccc[nH]c-4n3)CC2)cc1`, the inhibition constant Ki on D(4) dopamine receptor came out at 2 nM; on D(3) dopamine receptor, 250 nM; at D(2) dopamine receptor, 200 nM.
On the same counts, the results for `c1c[nH]c2nc(CN3CCc4ccccc4C3)cc-2c1` are 59 nM, 1100 nM and 600 nM.
For `C1=C(c2ccccc2)CCN(CCc2c[nH]c3ncccc23)C1`, the Ki turned out to be 34 nM at D(4) dopamine receptor, 10 nM at D(3) dopamine receptor and 21 nM on D(2) dopamine receptor.
On the same counts, the results for `C1=C(/C=C/c2ccccc2)CCN(CCc2c[nH]c3ncccc23)C1` are 6.5 nM, 180 nM and 280 nM.
As to `COc1ccc(N2CCN(Cc3c[nH]c4ncccc34)CC2)cc1`, the Ki at D(3) dopamine receptor is 3900 nM; at D(2) dopamine receptor it was above 1500 nM.
In the case of `Clc1ccc(N2CCN(CCc3cc4cccnc4[nH]3)CC2)cc1`, the Ki at D(4) dopamine receptor turned out to be 11.7 nM; at D(3) dopamine receptor, 50 nM; at D(2) dopamine receptor, 800 nM.
On the same counts, the results for `COc1ccc(N2CCN(CCc3c[nH]c4ncccc34)CC2)cc1` are 26 nM, 530 nM and 900 nM.
